Reference: patent US9623000B2, “Compositions and methods for treating inflammatory disorders” (priority 2008, dated 2017)
Where “and” joins values, the source holds several entries; their conditions need not be identical. Equal entries are not always repeated. Marks after values point to notes of the source that are not given here.

How the values were obtained:
Assay type in all cases: in vivo, Mice/Balb/c
[1] = tested on: croton oil induced ear edema; assay: Croton oil induced ear swelling, 3 hours post sensitization (Example 1); details: Hydrocortisone 600 nmol/ear; for % of Ear Thickness Inhibition (inhibition of ear swelling/edema vs Vehicle) / ear swelling (difference between the inflamed and intact ear thickness): 3 hours post croton oil; for % of Ear Thickness Inhibition (inhibition of ear swelling/edema vs Vehicle) / Mean Group Ear Swelling (mm) 3 Hours Post Croton Oil MEAN: topical 1 hour prior to and 2 hours post sensitization; for % of Ear Thickness Inhibition (inhibition of ear swelling/edema vs Vehicle): 2 mg/ml or 5 mg/ml (PEA, CBD); for Mean Group Ear Swelling (mm) 3 Hours Post Croton Oil MEAN: Amitriptyline, Topiramate, Moclobimide 2 mg/ml; for Mean Group Ear Swelling (mm) 3 Hours Post Croton Oil MEAN / ear swelling (difference between the inflamed and intact ear thickness): PEA, CBD 5 mg/ml; for ear swelling (difference between the inflamed and intact ear thickness): MEAN±SEM
Method: A study was undertaken in order to evaluate the effect of topical preparations of various test items (TI) and TI combined with Croton oil on ear swelling. Ear thickness was measured before croton oil induced ear swelling and 3 hours post ear edema induction. The various TIs were applied topically 1 hour prior to ear edema sensitization and 2 hours post ear edema sensitization. The difference in ear thickness of the intact ear was subtracted from the ear thickness of the inflamed ear. This value is defined as “ear swelling”.
Species/Strain: Mice/Balb/c
Prior to sensitization animals were anesthetized. Ear thickness was measured 24 hours prior to croton oil sensitization; this measurement served as a baseline. On sensitization day, the animals were anesthetized using Ketamine and Xylazine formulation. Then, the animals were administered with TI topically. One hour later the animals were introduced to croton oil sensitization (50 μL). Two hours post croton oil sensitization the animals were administered with TI again. Three hours post croton oil sensitization the ear thickness of the animals were measured again.
TIs were administered twice, the first dose was 1 hour prior to croton oil sensitization and the second time was 2 hours post croton oil sensitization. All TIs were dissolved in 10% Ethanol and were applied topically on the surface of the sensitized ear.
Determination of individual body weights of animals was made one day before sensitization phase. A single person was responsible for ear thickness measurement throughout the entire study. The ear thickness of both left and right ears was measured using analogue calipers (Instrumentation 0.01 mm L-01) on 2 occasions: 24 hours prior to croton oil sensitization, and 3 hours post croton oil sensitization.
All data are presented in MEAN±SEM. T-test, two tailed, unpaired was applied to all data. P value was considered significant if p<0.05.
Ear thickness was measured before Croton oil induced ear sensitization (baseline) and 3 hours post ear edema induction. Treatment with various TI was applied topically 1 hour prior to sensitization and 2 hours post induction. The difference in ear thickness of the intact ear was subtracted from the ear thickness measured of the inflamed ear. This value was referred to as ear swelling.

[2] = tested on: croton oil induced ear edema; assay: Croton oil induced ear edema, 6 hours post sensitization (Example 2)
From the text: A study was undertaken in order to evaluate the effect of topical preparations of Hydrocortisone, Betamethasone and PEA at various concentrations (as single agents and in various combinations) on ear edema in mice. […] The difference in ear thickness of the intact ear was subtracted from the ear thickness of the inflamed ear. This value is defined as “ear swelling”.

[3] = tested on: croton oil induced ear edema; assay: Croton oil induced ear edema, 6 and 9 hours post sensitization (Example 3); details: PEA 1%; for activity in inhibiting ear swelling vs. Vehicle: Betamethasone 4 μg/25 μl per ear; for Mean Left Ear Delta Thickness, Delta + 9 h vs baseline / Mean Left Ear Delta thickness, Delta + 6 h vs baseline / Mean Left Ear Thickness (mm) Day 0 (6 h post sensitization) / Mean Left Ear Thickness (mm) Day 0 (9 h post sensitization): Betamethasone EDmax 4 μg/25 μl per ear; for Mean Left Ear Thickness (mm) Day 0 (6 h post sensitization) / Mean Left Ear Thickness (mm) Day 0 (9 h post sensitization): topical 25 μl per ear prior to sensitization
Method: A study was undertaken in order to determine the effect of topical application of a combined preparation of Betamethasone and PEA on ear edema in mice. Ear thickness was measured before croton oil induced ear swelling and 6 and 9 hours post ear edema induction. […]
The difference in ear thickness of the intact ear was subtracted from the ear thickness of the inflamed ear. This value is defined as “ear swelling”.

[4] = steroid alone at ED50: Hydrocortisone 55 μg/25 μl per ear, Betamethasone 1 μg/25 μl per ear
[5] = steroid alone at EDmax: Hydrocortisone 200 μg/25 μl per ear, Betamethasone 4 μg/25 μl per ear
[6] = topical, steroid alone at calculated ED50: Hydrocortisone 55 μg/25 μl per ear, Betamethasone 1 μg/25 μl per ear
[7] = topical, steroid alone at calculated EDmax: Hydrocortisone 200 μg/25 μl per ear, Betamethasone 4 μg/25 μl per ear

CN(C)CCC=C1c2ccccc2CCc2ccccc21 [Amitriptyline, amitriptyline]
% of Ear Thickness Inhibition (inhibition of ear swelling/edema vs Vehicle) [1]: 62%
Mean Group Ear Swelling (mm) 3 Hours Post Croton Oil MEAN [1]: 0.248* mm

C[C@H]1C[C@H]2[C@@H]3CCC4=CC(=O)C=C[C@]4(C)[C@@]3(F)[C@@H](O)C[C@]2(C)[C@@]1(O)C(=O)CO [Betamethasone, betamethasone]
Mean Left Ear Delta thickness, Delta + 6 h vs baseline [2, 4]: 0.043
Mean Left Ear Delta thickness, Delta + 6 h vs baseline [2, 5]: 0.031*
Left Ear Thickness (mm) Study Day 0 (6 H post sensitization) [2, 6]: 0.30±0.008 mm
Left Ear Thickness (mm) Study Day 0 (6 H post sensitization) ([2]; topical, steroid alone at calculated ED50: Hydrocortisone 55 μg/25 μl per ear, Betamethasone 1 μg/25 μl per ear, listed as Beta.): 0.30 * mm
Left Ear Thickness (mm) Study Day 0 (6 H post sensitization) [2, 7]: 0.29±0.005 mm
Left Ear Thickness (mm) Study Day 0 (6 H post sensitization) ([2]; topical, steroid alone at calculated EDmax: Hydrocortisone 200 μg/25 μl per ear, Betamethasone 4 μg/25 μl per ear, listed as Beta): 0.29 ** mm
activity in inhibiting ear swelling vs. Vehicle ([3]; 6 hours post sensitization): active
activity in inhibiting ear swelling vs. Vehicle ([3]; 9 hours post sensitization): not active
Mean Left Ear Delta Thickness, Delta + 9 h vs baseline [3]: 0.092#
Mean Left Ear Delta thickness, Delta + 6 h vs baseline [3]: 0.036**
Mean Left Ear Thickness (mm) Day 0 (6 h post sensitization) [3]: 0.27*** mm
Mean Left Ear Thickness (mm) Day 0 (9 h post sensitization) [3]: 0.33 mm

C=C(C)[C@@H]1CCC(C)=C[C@H]1c1c(O)cc(CCCCC)cc1O [CBD, cannabidiol]
ear swelling (difference between the inflamed and intact ear thickness) [1]: 0.020±0.010 mm
% of Ear Thickness Inhibition (inhibition of ear swelling/edema vs Vehicle) [1]: 72%
Mean Group Ear Swelling (mm) 3 Hours Post Croton Oil MEAN [1]: 0.240* mm

C[C@]12CCC(=O)C=C1CC[C@@H]1[C@@H]2[C@@H](O)C[C@@]2(C)[C@H]1CC[C@]2(O)C(=O)CO [Hydrocortisone, hydrocortisone]
ear swelling (difference between the inflamed and intact ear thickness) [1]: 0.043±0.003 mm
% of Ear Thickness Inhibition (inhibition of ear swelling/edema vs Vehicle) [1]: 40%
Mean Group Ear Swelling (mm) 3 Hours Post Croton Oil MEAN [1]: 0.243 mm
activity compared to vehicle in reducing ear thickness / ear edema ([2]; 6 hours post sensitization, Hydrocortisone 55 and 200 μg/25 μl per ear, Betamethasone 1 and 4 μg/25 μl per ear (calculated ED50 and EDmax)): not active
Mean Left Ear Delta thickness, Delta + 6 h vs baseline [2, 4]: 0.060
Mean Left Ear Delta thickness, Delta + 6 h vs baseline [2, 5]: 0.054
Left Ear Thickness (mm) Study Day 0 (6 H post sensitization) [2, 6]: 0.32 mm
Left Ear Thickness (mm) Study Day 0 (6 H post sensitization) [2, 7]: 0.31 mm

O=C(NCCN1CCOCC1)c1ccc(Cl)cc1 [Moclobimide, moclobemide]
% of Ear Thickness Inhibition (inhibition of ear swelling/edema vs Vehicle) [1]: 52%
Mean Group Ear Swelling (mm) 3 Hours Post Croton Oil MEAN [1]: 0.265 mm

CCCCCCCCCCCCCCCC(=O)NCCO [PEA, N-(2-hydroxyethyl)hexadecanamide]
ear swelling (difference between the inflamed and intact ear thickness) [1]: 0.035±0.012 mm
% of Ear Thickness Inhibition (inhibition of ear swelling/edema vs Vehicle) [1]: 52%
Mean Group Ear Swelling (mm) 3 Hours Post Croton Oil MEAN [1]: 0.268 mm
Mean Left Ear Delta thickness, Delta + 6 h vs baseline ([2]; PEA 0.5% (alone or + Hydrocortisone/Betamethasone ED50)): 0.135
Mean Left Ear Delta thickness, Delta + 6 h vs baseline ([2]; PEA 1% (alone or + Hydrocortisone/Betamethasone ED50)): 0.031*
reducing ear thickness vs. Vehicle ([2]; PEA 1% topical, 6 hours post sensitization): approximately 50%
Mean Left Ear Delta thickness, Delta + 6 h vs baseline ([2]; PEA 5% (alone or + Hydrocortisone/Betamethasone ED50)): 0.062
Left Ear Thickness (mm) Study Day 0 (6 H post sensitization) ([2]; topical 25 μl per ear 0.5 hour prior to sensitization, PEA 0.5% (alone or + Hydrocortisone 55 μg/25 μl or Betamethasone 1 μg/25 μl, ED50)): 0.38 mm
Left Ear Thickness (mm) Study Day 0 (6 H post sensitization) ([2]; topical 25 μl per ear 0.5 hour prior to sensitization, PEA 1% (alone or + Hydrocortisone 55 μg/25 μl or Betamethasone 1 μg/25 μl, ED50)): 0.29±0.004 mm and 0.29 ** mm
Left Ear Thickness (mm) Study Day 0 (6 H post sensitization) ([2]; topical 25 μl per ear 0.5 hour prior to sensitization, PEA 5% (alone or + Hydrocortisone 55 μg/25 μl or Betamethasone 1 μg/25 μl, ED50)): 0.32 mm
activity in inhibiting ear swelling vs. Vehicle ([3]; 6 hours post sensitization): significant activity
activity in inhibiting ear swelling vs. Vehicle ([3]; 9 hours post sensitization): not active
Mean Left Ear Delta Thickness, Delta + 9 h vs baseline [3]: 0.147
Mean Left Ear Delta thickness, Delta + 6 h vs baseline [3]: 0.056*
Mean Left Ear Thickness (mm) Day 0 (6 h post sensitization) [3]: 0.30** mm
Mean Left Ear Thickness (mm) Day 0 (9 h post sensitization) [3]: 0.39 mm

CC1(C)O[C@@H]2[C@@H](CO[C@@]3(COS(N)(=O)=O)OC(C)(C)O[C@@H]23)O1 [Topiramate, topiramate]
% of Ear Thickness Inhibition (inhibition of ear swelling/edema vs Vehicle) [1]: 63%
Mean Group Ear Swelling (mm) 3 Hours Post Croton Oil MEAN [1]: 0.243 mm
